Patent US12280090B2, “Antimicrobial peptides” (priority 2018, dated 2025)
≈ marks a conversion by molar mass, not a printed value. Where two headings read alike, the source gives them in different places. Ends that are not written are not given here. Peptide text beside a SMILES is read from it.

Columns and labels:
Format in all cases: cell-based
[1] = test system: Staphylococcus aureus—ATCC 29213 “wild type”
Procedure: (§1) Independent experiments were conducted with different strains of Staphylococcus aureus—ATCC 29213 “wild type”; and Staphylococcus aureus—Methicillin resistant Staphylococcus aureus.
(§2) The ATCC (American Type Culture Collection) strains received from Cedarlane. Multi drug resistant (MDR) strains, as clinical isolates, were received from the laboratory of Dr. Linda Hoang.
(§3) Putative antimicrobial peptides were synthesized by GeneScript. A-list antimicrobial peptides re-synthesized by GeneScript. P2_CCH, P5_CCH, and P5_CCH_A19K were each synthesized under two conditions: standard synthesis using TFA, and the other with TFA-removal using acetate as a counter-ion. A MIC method, adapted for use with cationic antimicrobial peptides, was used to evaluate MIC antimicrobial activity (Hancock 1999).
(§4) The following data are presented to show the activity (MIC/MBC in μg/mL) of certain antimicrobial peptides described herein relative to a modified/synthetic version having a specified substitution. While data presented in tables above may be presented again, or may be represented in data provided in the tables below, such duplication is believed to assist the reader in readily noting comparisons. Different Run Numbers noted in the following tables denotes experiments conducted on different days, with each run reflecting multiple n values.

[2] = test system: Salmonella Enteritidis
Excerpt: as §3, §4

[3] = test system: Methicillin resistant Staphylococcus aureus; details: Methicillin resistant
Procedure: as §1, §2, §3, §4

[4] = test system: Escherichia coli—Carbapenemase-producing organism; Klebsiella pneumoniae carbapenemase
Procedure: (§5) Independent experiments were conducted with four strains of E. coli, including ATCC E. coli (Escherichia coli—ATCC 25922 “wild type”); ESBL E. coli (Escherichia coli—Extended spectrum beta-lactamase); CPO E. coli (KPC) (Escherichia coli—Carbapenemase-producing organism; Klebsiella pneumoniae carbapenemase); and CPO E. coli (NDM) (Escherichia coli—Carbapenemase-producing organism; New-Dehli Metallobetalactamase).
as §2, §3, §4

[5] = test system: Escherichia coli—ATCC 25922 “wild type”
Procedure: as §5, §2, §3, §4

[6] = test system: Escherichia coli—Extended spectrum beta-lactamase
Procedure: as §5, §2, §3, §4

[7] = test system: Escherichia coli—Carbapenemase-producing organism; New-Dehli Metallobetalactamase
Procedure: as §5, §2, §3, §4

[8] = test system: Salmonella Heidelberg (MDR)
Excerpt: as §2, §3, §4

[9] = test system: Mycobacterium smegmatis (MC^2155); details: Mycobacterium (MC^2155)
In short: (§6)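 MIC and MBC were run by broth microdilution adapted from Hancock cationic-AMP and CLSI methods, in Mueller Hinton broth (+5% lysed horse blood for S. pyogenes) at about 5×10^5 CFU/mL. Peptides came from two-fold 10× stocks (2560–5 μg/mL) and were incubated 16-24 h at 37 °C. For MBC, the MIC well and two more-concentrated wells were plated on MHA for 24 h at 37 °C.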

[10] = test system: Escherichia coli: ATCC 9723H; details: ATCC 9723
In short: as §6

[11] = test system: Pseudomonas aeruginosa: ATCC 10148; details: ATCC 10148
In short: as §6

[12] = test system: Staphylococcus aureus: ATCC 6538P; details: ATCC 6538
In short: as §6

[13] = test system: Streptococcus pyogenes: unknown strain, hospital isolate; details: unknown strain, hospital isolate
In short: as §6

[14] = Salmonella Heidelberg (MDR), Run No. 2
[15] = Salmonella Heidelberg (MDR), Run No. 3

Compound | Minimum Inhibitory Concentration (MIC) [2] [µg/mL] | Minimum Inhibitory Concentration (MIC) [4] [µg/mL] | MIC [5] [µg/mL] | Minimum Inhibitory Concentration (MIC) [5] [µg/mL] | Minimum Inhibitory Concentration (MIC) [6] [µg/mL] | Minimum Inhibitory Concentration (MIC) [7] [µg/mL] | Minimum Inhibitory Concentration (MIC) [8] [µg/mL] | MIC ([1]; ATCC 29213) [µg/mL] | MIC [2] [µg/mL] | MIC [9] [µg/mL] | MIC [11] [µg/mL] | MIC [12] [µg/mL] | MIC [13] [µg/mL] | MIC [8] [µg/mL] | MBC [11] [µg/mL] | MBC [12] [µg/mL] | MBC [13] [µg/mL] | further results
CC[C@H](C)[C@H](NC(=O)[C@H](CCCCN)NC(=O)[C@H](CCC(=O)O)NC(=O)[C@H](CCCCN)NC(=O)[C@H](CO)NC(=O)[C@H](CCCCN)NC(=O)[C@H](CCCNC(=N)N)NC(=O)[C@H](Cc1ccccc1)NC(=O)[C@H](Cc1ccccc1)NC(=O)[C@H](CC(=O)O)NC(=O)CNC(=O)[C@H](CC(C)C)NC(=O)[C@@H](N)CC(C)C)C(=O)NCC(=O)N[C@@H](CCCCN)C(=O)N[C@@H](CCC(=O)O)C(=O)N[C@@H](Cc1ccccc1)C(=O)N[C@@H](CCCCN)C(=O)N[C@@H](CCCNC(=N)N)C(=O)N[C@H](C(=O)N[C@H](C(=O)N[C@@H](CCC(N)=O)C(=O)N[C@@H](CCCNC(=N)N)C(=O)N[C@H](C(=O)N[C@@H](CCCCN)C(=O)N[C@@H](CC(=O)O)C(=O)N[C@@H](Cc1ccccc1)C(=O)N[C@@H](CC(C)C)C(=O)N[C@@H](CCCNC(=N)N)C(=O)N[C@@H](CC(N)=O)C(=O)N[C@@H](CC(C)C)C(=O)N[C@H](C(=O)N1CCC[C@H]1C(=O)N[C@@H](CCCNC(=N)N)C(=O)N[C@H](C(=O)N[C@@H](CCC(=O)O)C(=O)N[C@@H](CO)C(=O)O)[C@@H](C)O)C(C)C)[C@@H](C)CC)C(C)C)[C@@H](C)CC [LL-37, reference compound] | – | – | – | – | – | – | – | – | – | – | – | – | – | – | – | – | – | Minimum Inhibitory Concentration (MIC) ([1]; S. aureus ATCC 29213, Gram positive): 128+ ug/mL; Minimum Inhibitory Concentration (MIC) ([2]; S. enterica spp. Enteritidis, Gram negative): 64+ ug/mL
ALVAKIQKFPVFNTLKLCKLKLRII [P11_CCH_E21K_E23R] | – | – | – | – | – | – | – | 128 | 64 | – | – | – | – | 128 | – | – | – | MBC [5]: 32 µg/mL; MBC [7]: 128 µg/mL
ATAWMIPPRGMQPIIPIRIRPLCGKQ [P7_CCH_P9R_R5M] | – | – | 256 | – | – | – | – | 128 | – | – | – | – | – | – | – | – | – | MBC [4]: 256 µg/mL; MIC [4]: 256 µg/mL; MBC [6]: 128 µg/mL; MIC [6]: 128 µg/mL; MIC [7]: 256 µg/mL
FFPRVLPLANKFLPTIYCALPKSVGN [Peptide P2_CCH] | 64 | 16 to 32 | – | 16 | 16 | 16 | 128 | – | 64 | 16 | >256 | >256 | >256 | 128 | >256 | >256 | >256 | MBC [2]: 64 µg/mL; MBC [8]: 128 µg/mL
IQRLPVIKMLKLWKLELKII [P13_CCH_N8K_E18K] | – | – | 32 | – | – | – | – | 256 | 16 | – | – | – | – | 32 | – | – | – | MIC [4]: 64 µg/mL; MIC ([7]; CPO E. coli (NDM), Run No. 4): ~64? μg/mL; MIC ([7]; CPO E. coli (NDM), Run No. 5): ~64? μg/mL; MIC [8, 14]: ~16? μg/mL; MIC [8, 15]: ~16? μg/mL

Further lines, with some results ahead:

Minimum Inhibitory Concentration (MIC) [2] [µg/mL] | Minimum Inhibitory Concentration (MIC) [4] [µg/mL] | MIC [5] [µg/mL] | Minimum Inhibitory Concentration (MIC) [5] [µg/mL] | Minimum Inhibitory Concentration (MIC) [6] [µg/mL] | Minimum Inhibitory Concentration (MIC) [7] [µg/mL] | Minimum Inhibitory Concentration (MIC) [8] [µg/mL] | MIC ([1]; ATCC 29213) [µg/mL] | MIC [2] [µg/mL] | MIC [9] [µg/mL] | MIC [11] [µg/mL] | MIC [12] [µg/mL] | MIC [13] [µg/mL] | MIC [8] [µg/mL] | Compound | MBC [11] [µg/mL] | MBC [12] [µg/mL] | MBC [13] [µg/mL] | further results
16 to 32 | 4 | 4 (≈ 1.21 µM) | 4 | 4 | 4 to 8 | 16 to 32 | – | – | – | – | – | – | – | CC[C@H](C)[C@H](NC(=O)[C@H](CCCCN)NC(=O)[C@H](CCCCN)NC(=O)CNC(=O)[C@@H](NC(=O)[C@@H](NC(=O)[C@H](CCCCN)NC(=O)[C@@H](NC(=O)[C@@H](NC(=O)[C@H](CCC(=O)O)NC(=O)[C@H](Cc1c[nH]c2ccccc12)NC(=O)[C@H](CC(C)C)NC(=O)CN)[C@@H](C)O)[C@@H](C)CC)[C@@H](C)O)[C@@H](C)O)C(=O)N[C@@H](C)C(=O)N[C@@H](CC(C)C)C(=O)N[C@@H](CC(N)=O)C(=O)N[C@@H](CC(C)C)C(=O)N[C@@H](CC(C)C)C(=O)N[C@@H](CC(=O)O)C(=O)N[C@@H](CCCCN)C(=O)N[C@H](C(=O)N[C@@H](CCCCN)C(=O)N[C@@H](CS)C(=O)N[C@@H](CCCCN)C(=O)N[C@H](C(=O)N[C@@H](C)C(=O)NCC(=O)NCC(=O)N[C@@H](CS)C(=O)N1CCC[C@H]1C(=O)N1CCC[C@H]1C(=O)O)[C@@H](C)CC)[C@@H](C)CC [Peptide P6_CCH_S12K] (H-GLWETIKTTGKKIALNLLDKIKCKIAGGCPP-OH; N-terminus and C-terminus assumed) | – | – | – | Minimum Inhibitory Concentration (MIC) [3]: 64 to 128 µg/mL; Minimum Inhibitory Concentration (MIC) ([1]; ATCC 29213): 64 to 128 µg/mL; MBC [5]: 4 µg/mL (≈ 1.21 µM); MBC [6]: 4 µg/mL (≈ 1.21 µM); MIC [6]: 4 µg/mL (≈ 1.21 µM)
16 to 32 | 4 to 8 | – | 2 to 4 | 4 to 8 | 4 to 8 | 16 to 32 | – | – | – | – | – | – | – | CC[C@H](C)[C@H](NC(=O)[C@H](Cc1ccccc1)NC(=O)[C@@H]1CCCN1C(=O)[C@H](CC(C)C)NC(=O)[C@@H](N)Cc1ccccc1)C(=O)N[C@@H](C)C(=O)N[C@@H](CCCNC(=N)N)C(=O)N[C@@H](CC(C)C)C(=O)N[C@@H](C)C(=O)N[C@@H](C)C(=O)N[C@@H](CCCCN)C(=O)N[C@H](C(=O)N[C@@H](Cc1ccccc1)C(=O)N1CCC[C@H]1C(=O)N[C@@H](CO)C(=O)N[C@H](C(=O)N[C@H](C(=O)N[C@@H](CS)C(=O)N[C@@H](CO)C(=O)N[C@H](C(=O)N[C@H](C(=O)N[C@@H](CCCCN)C(=O)N[C@@H](CCCCN)C(=O)N[C@@H](CS)C(=O)O)[C@@H](C)O)C(C)C)[C@@H](C)CC)[C@@H](C)CC)C(C)C [Ran-4] (H-FLPFIARLAAKVFPSIICSVTKKC-OH; N-terminus and C-terminus assumed) | – | – | – | Minimum Inhibitory Concentration (MIC) [3]: 64 to 128 µg/mL; Minimum Inhibitory Concentration (MIC) ([1]; ATCC 29213): 64 to 128 µg/mL
– | – | – | – | – | – | – | 64 | 32 | >256 | >256 | >256 | >256 | 128 | ALVAKIQKFPVFNTLKLCKLELEII [Peptide P11_CCH] | >256 | >256 | >256 | MBC [9]: >256 µg/mL; MBC [10]: >256 µg/mL; MIC [10]: >256 µg/mL
– | – | – | – | – | – | – | 128 | 16 | >256 | >256 | >256 | >256 | 32 | IQRLPVINMLKLWKLELEII [Peptide P13_CCH] | >256 | >256 | >256 | MIC [7]: 256 µg/mL; MBC [9]: >256 µg/mL; MBC [10]: >256 µg/mL; MIC [10]: >256 µg/mL; MIC [8, 14]: ~32? μg/mL; MIC [8, 15]: ~32? μg/mL
